Blank lines part the entries; values can stand above or below the compound they belong to.
Tests used:
[1] = system: arterial thrombosis induced by laser beam in the mesenteric microcirculation of the rat; assay: Laser-induced thrombosis in the mesenteric microcirculation; format: in vivo
Source text: A/Principle of Laser-induced Thrombosis (Seiffge D. et al., 1989; Weichter W. et al., 1983).
In this model, lesion of the vascular wall is induced by a laser beam. This beam causes a limited lesion of the vascular endothelium (only 1 to 2 cells are destroyed). This laying bare of the sub-endothelium, which is a thrombogenetic surface, results in the adherence of platelets via […]. This adherence of platelets is followed by the activation thereof. They form pseudopods and secrete the content of their granules. This activation results in the appearance of glycoproteins IIb-IIIa which are necessary for the aggregation of the platelets between them. This lesion is induced in the mesenteric microcirculation of the rat. It is immediately followed by the formation of a thrombus (in a few seconds). This thrombus, which rapidly enlarges under the influence of the flow of blood, embolises before being formed again.
By this manes, the assessment of the effect of glycine betaine was conducted pharmacologically in conjunction with the study of two active molecules used as a reference; namely acetylsalicylic acid and heparin (of low molecular weight). The assessment also involved the activity of glycine betaine in relation to the prothrombotic effects induced by contrasting products.
Male Wistar rats were used for these tests. They weighed between 200 and 250 grams. After an 8-day stabilisation period, the rats were subjected to fasting for 12 hours. They were then anaesthetised, glycine betaine was administered subcutaneously, and the mesentery (laser) or vena cava (stasis) was opened at the end of the experiments.

[2] = system: bleeding time in rats; assay: Induced haemorrhagic (bleeding) time, tail cut; format: in vivo, rat
Procedure: Induced Haemorrahgic Time IHT
(E. Dejana. Bleeding time in rats. Thrombosis. Rech. 1982) Blood samples are made before the test. The tail of anaesthetised rat, is dipped for 5 minutes in a water bath at 37° C. so as to provoke a dilatation of the peripheral vessels which are removed and cut at the end, the chronometer being started. The IHT is defined as being the time period comprised between the cutting of end tail and the end of the haemorrhage or bleeding. The end of haemorrhage is defined as the time where the last drop of blood is removed from the tail and no other drop is seen for 180 seconds. […]

[3] = system: platelet aggregation; assay: Whole blood platelet aggregation ex vivo (aggregometer); format: in vivo, rat; settings: after laser firings
Procedure: The aggregation is made in accordance to the methods of Cardinal & Flower. Pharmacol. Method. 1980, and to American Journal of Clinical Pathology, 1989; 92: 676-679, Sureney. J D. Whole Blood aggregometry. After a keeping period of 8 days, the rats are subjected to a fasting for 12 hours. […] The rats are then anaesthetised with sodium Thiopental administered at a dose of 200 mg/Kg and the blood samples are taken by intracardiac puncture on a trisodium citrate solution (1 volume of solution at 3.8% citrate for 9 volumes of blood).

[4] = system: blood cells; assay: Blood cell counts; format: in vivo, rat
[5] = system: coagulation factors; assay: Biological balance (Quick time, ACT, fibrinogen, α2AP, AT III); format: in vivo, rat
[6] = after laser firings and administration of contrasting products, alone or with glycine betaine 5 mg/kg
[7] = contrasting products alone or with glycine betaine 5 mg/kg
[8] = rat, after laser firings, glycine betaine 5 mg/kg, acetylsalicylic acid 100 mg/kg, heparin 2 mg/kg
[9] = rat, glycine betaine 5 mg/kg, acetylsalicylic acid 100 mg/kg, heparin 2 mg/kg

- IBD (induced bleeding time) [2, 7]: 128 ± 7.64 s
- Number of platelets [4, 7]: 585.67 ± 23.54 10^9
Structure (SMILES): C[C@H](O)C(=O)Nc1c(I)c(C(=O)NC(CO)CO)c(I)c(C(=O)NC(CO)CO)c1I [Iopamidol ®, Iopamidol]
- Duration of embolisation [1, 6]: 6.33 ± 0.52 min
- Number of emboles [1, 6]: 11.67 ± 0.50
- Amplitude (platelet aggregation) [3, 7]: 15 ± 2.64 ohm
- Velocity (platelet aggregation) [3, 7]: 12.33 ± 0.50 ohm/min
- ACT (Activated cephaline time) [5, 7]: 41.33 ± 0.8 s
- AT III (Antithrombin III) [5, 7]: 70.6 ± 1.51%
- Fibrinogen [5, 7]: 1.5 ± 0.8 g/L
- QT (Quick time) [5, 7]: 28.1 ± 0.75 s
- α2AP (Alpha,2-antiplasmin) [5, 7]: 25.23 ± 0.95%

- Bleeding time [2, 9]: 276.67 ± 20.82 s
- Number of platelets [4, 9]: 855.33 ± 63.17 10^9
- Number of red corpuscles [4, 9]: 6.15 ± 0.31 10^12
- Number of white corpuscles [4, 9]: 4.33 ± 1.00 10^9
Structure (SMILES): CC(=O)Oc1ccccc1C(=O)O [Acetylsalicylic acid]
- Duration of embolisation [1, 8]: 0.33 ± 0.58 min
- Number of emboles or embolies [1, 8]: 1 ± 1
- Amplitude (platelet aggregation) [3, 9]: 2.33 ± 2.08 ohms
- Velocity (platelet aggregation) [3, 9]: 2 ± 1 ohms/min
- ACT (Activated cephaline time) [5, 9]: 27.26 ± 1.1 s
- AT III (Antithrombin III) [5, 9]: 85.33 ± 3.51%
- Fibrinogen [5, 9]: 2.19 ± 0.33 g/L
- QT (Quick time) [5, 9]: 18.33 ± 2.08 s
- α2AP (Alpha,2-antiplasmin) [5, 9]: 29.36 ± 0.92%
